For series [1] the following is noted: purchased from Sigma Aldrich; cited from earlier work.
A further series deals with 3T3 fibroblasts. In words: Viability tests of 3T3 fibroblasts (MTT method). Format: cell-based. The settings on record: 3T3 cells, 10, 100, 500 and 1000 μg·mL^−1, 0, 24, 48, 72 hours. The method, then: FIG. 3 illustrates the results of the cell viability tests of 3T3 fibroblasts in α,β-unsaturated aldehyde of chondroitin sulfate (Mw=4×10^4 g/mol, DS=20%). The activation vs inhibition curve, expressed in %, with respect to the control in time T=0 h (100%). Evaluation by means of MTT method, six repetitions.
The tested substance, α,β-unsaturated aldehyde of chondroitin sulfate (DS=20%, Mw=40 kDa), was dissolved in a complete 3T3 medium. The solution was filtered via a 0.22 μm filter. The final test concentrations of the tested solution were 10, 100, 500, and 1000 μg·mL^−1. 3T3 cells of the density of 3000 cells per a well were inoculated into 96-well plates. Before the treatment, the cells were cultured for 24 hours in a complete medium. The cell viability was evaluated by spectrophotometry by means of 3-[4,5-dimethylthiazole-2-yl]-2,5-diphenyl tetrazolium bromide (MTT method) in the intervals of 0, 24, 48, 72 hours. The whole experiment was supplemented with a set of non-treated controls and blank samples. The measured optical density data were converted into percentage formulation related to the control in the time T0 hours (the ratio of the optical density of the treated sample with respect to the optical density of the non-treated control T0, multiplied by 100) and the standard error of the mean (SEM) was calculated. The results of the test are graphically presented at FIG. 3.
(Formazan colour is commonly taken as a measure of viable cells.)

Another series is described as follows: Solubility in DMSO. The format is physicochemical. The settings on record: lyophilized acid form. The protocol: A 1% solution of chondroitin sulfate (500 mg, 1.1 mmol) in distilled water was prepared. The solution was cooled to 5° C. and 1.2 ml of Amberlite IR 120 Na(H^+) catex was added. The reaction mixture was stirred for 24 h at 5° C. The catex was filtered off, the product was frozen and lyophilized. Its solubility in DSMO was tested and found satisfactory.

On to Lambda carrageenan, for which the solubility in water in series [1] is 10000 µg/mL.
As for “α,β-unsaturated aldehyde of chondroitin sulfate”, the “cytotoxicity (cell viability of 3T3 fibroblasts)” value with 3T3 fibroblasts is “not cytotoxic”.
Turning to “Acid Form of Chondroitin Sulfate [Example 26]”, the “solubility in DSMO” value in “Solubility in DMSO” is “satisfactory”.
As for sodium salt of dermatan sulfate, the solubility in water in series [1] is 5000 µg/mL.
